Results published in the supplement of paper PMC10307832.

Key:
Assay in all cases: relative viability (nuclei count vs DMSO), 5 days (fraction); higher = more cells survive
BEN = test system: BEN
How it was run: (§1)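 Values are medians from duplicate plates. Each reflects relative viability, defined as the nuclei count of treated wells over that of vehicle wells. Lung cancer cell lines in 1536-well plates were pin-tool dosed one day after seeding with one drug alone or with a fixed anchor-drug dose plus five library-drug doses (not always all listed) in √10 steps, then fixed, stained and imaged at 4× after 5 days.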

EKVX = test system: EKVX
How it was run: as §1

HARA = test system: HARA
How it was run: as §1

HCC-366 = test system: HCC-366
How it was run: as §1

HCC-827 = test system: HCC-827
How it was run: as §1

LC-2-ad = test system: LC-2-ad
How it was run: as §1

LOU-NH91 = test system: LOU-NH91
How it was run: as §1

NCI-H1355 = test system: NCI-H1355
How it was run: as §1

NCI-H1395 = test system: NCI-H1395
How it was run: as §1

NCI-H1437 = test system: NCI-H1437
How it was run: as §1

NCI-H1734 = test system: NCI-H1734
How it was run: as §1

NCI-H1792 = test system: NCI-H1792
How it was run: as §1

NCI-H2009 = test system: NCI-H2009
How it was run: as §1

NCI-H2087 = test system: NCI-H2087
How it was run: as §1

NCI-H2170 = test system: NCI-H2170
How it was run: as §1

NCI-H2228 = test system: NCI-H2228
How it was run: as §1

NCI-H2342 = test system: NCI-H2342
How it was run: as §1

NCI-H2405 = test system: NCI-H2405
How it was run: as §1

NCI-H596 = test system: NCI-H596
How it was run: as §1

NCI-H647 = test system: NCI-H647
How it was run: as §1

NCI-H661 = test system: NCI-H661
How it was run: as §1

SK-LU-1 = test system: SK-LU-1
How it was run: as §1

SK-MES-1 = test system: SK-MES-1
How it was run: as §1

## C[C@@H]1CN(CC(=O)Nc2ccc3c(c2)Cc2cccc(-c4cc(=O)cc(N5CCOCC5)o4)c2S3)C[C@H](C)O1 + Cc1nc(Nc2ncc(C(=O)Nc3c(C)cccc3Cl)s2)cc(N2CCN(CCO)CC2)n1 [Dasatinib] (partner 0.075 µM)
BEN; first compound 0.04 µM
  relative viability: 0.308
BEN; first compound 0.1265 µM
  relative viability: 0.265
BEN; first compound 0.4 µM
  relative viability: 0.333
BEN; first compound 4 µM
  relative viability: 0.377
EKVX; first compound 0.04 µM
  relative viability: 0.576
EKVX; first compound 0.1265 µM
  relative viability: 0.568
EKVX; first compound 0.4 µM
  relative viability: 0.603
EKVX; first compound 4 µM
  relative viability: 0.475
HARA; first compound 0.1265 µM
  relative viability: 0.204
HARA; first compound 0.4 µM
  relative viability: 0.34
HARA; first compound 4 µM
  relative viability: 0.258
HCC-366; first compound 0.04 µM
  relative viability: 0.7
HCC-366; first compound 0.1265 µM
  relative viability: 0.636
HCC-366; first compound 0.4 µM
  relative viability: 0.427
HCC-366; first compound 4 µM
  relative viability: 0.529
HCC-827; first compound 0.04 µM
  relative viability: 0.396
HCC-827; first compound 0.1265 µM
  relative viability: 0.324
HCC-827; first compound 0.4 µM
  relative viability: 0.344
HCC-827; first compound 4 µM
  relative viability: 0.311
LC-2-ad; first compound 0.04 µM
  relative viability: 0.583
LC-2-ad; first compound 0.1265 µM
  relative viability: 0.55
LC-2-ad; first compound 0.4 µM
  relative viability: 0.487
LC-2-ad; first compound 4 µM
  relative viability: 0.492
LOU-NH91; first compound 0.04 µM
  relative viability: 0.588
LOU-NH91; first compound 0.1265 µM
  relative viability: 0.51
LOU-NH91; first compound 0.4 µM
  relative viability: 0.476
LOU-NH91; first compound 4 µM
  relative viability: 0.492
NCI-H1355; first compound 0.04 µM
  relative viability: 0.639
NCI-H1355; first compound 0.1265 µM
  relative viability: 0.723
NCI-H1355; first compound 0.4 µM
  relative viability: 0.604
NCI-H1355; first compound 4 µM
  relative viability: 0.646
NCI-H1395; first compound 0.04 µM
  relative viability: 0.396
NCI-H1395; first compound 0.1265 µM
  relative viability: 0.387
NCI-H1395; first compound 0.4 µM
  relative viability: 0.366
NCI-H1395; first compound 4 µM
  relative viability: 0.368
NCI-H1437; first compound 0.04 µM
  relative viability: 0.334
NCI-H1437; first compound 0.1265 µM
  relative viability: 0.34
NCI-H1437; first compound 0.4 µM
  relative viability: 0.387
NCI-H1437; first compound 4 µM
  relative viability: 0.359
NCI-H1734; first compound 0.04 µM
  relative viability: 0.475
NCI-H1734; first compound 0.1265 µM
  relative viability: 0.489
NCI-H1734; first compound 0.4 µM
  relative viability: 0.5
NCI-H1734; first compound 4 µM
  relative viability: 0.517
NCI-H1792; first compound 0.04 µM
  relative viability: 0.74
NCI-H1792; first compound 0.1265 µM
  relative viability: 0.684
NCI-H1792; first compound 0.4 µM
  relative viability: 0.788
NCI-H1792; first compound 4 µM
  relative viability: 0.72
NCI-H2009; first compound 0.04 µM
  relative viability: 0.383
NCI-H2009; first compound 0.1265 µM
  relative viability: 0.29
NCI-H2009; first compound 0.4 µM
  relative viability: 0.305
NCI-H2009; first compound 4 µM
  relative viability: 0.155
NCI-H2087; first compound 0.04 µM
  relative viability: 0.971
NCI-H2087; first compound 0.1265 µM
  relative viability: 0.852
NCI-H2087; first compound 0.4 µM
  relative viability: 0.894
NCI-H2087; first compound 4 µM
  relative viability: 0.743
NCI-H2170; first compound 0.04 µM
  relative viability: 0.569
NCI-H2170; first compound 0.1265 µM
  relative viability: 0.581
NCI-H2170; first compound 0.4 µM
  relative viability: 0.711
NCI-H2170; first compound 4 µM
  relative viability: 0.57
NCI-H2228; first compound 0.04 µM
  relative viability: 0.595
NCI-H2228; first compound 0.1265 µM
  relative viability: 0.498
NCI-H2228; first compound 0.4 µM
  relative viability: 0.423
NCI-H2228; first compound 4 µM
  relative viability: 0.383
NCI-H2342; first compound 0.04 µM
  relative viability: 0.326
NCI-H2342; first compound 0.1265 µM
  relative viability: 0.292
NCI-H2342; first compound 0.4 µM
  relative viability: 0.29
NCI-H2342; first compound 4 µM
  relative viability: 0.306
NCI-H2405; first compound 0.04 µM
  relative viability: 0.226
NCI-H2405; first compound 0.1265 µM
  relative viability: 0.187
NCI-H2405; first compound 0.4 µM
  relative viability: 0.229
NCI-H2405; first compound 4 µM
  relative viability: 0.169
NCI-H596; first compound 0.04 µM
  relative viability: 0.568
NCI-H596; first compound 0.1265 µM
  relative viability: 0.512
NCI-H596; first compound 0.4 µM
  relative viability: 0.572
NCI-H596; first compound 4 µM
  relative viability: 0.484
NCI-H647; first compound 0.04 µM
  relative viability: 0.236
NCI-H647; first compound 0.1265 µM
  relative viability: 0.159
NCI-H647; first compound 0.4 µM
  relative viability: 0.161
NCI-H647; first compound 4 µM
  relative viability: 0.146
NCI-H661; first compound 0.04 µM
  relative viability: 0.919
NCI-H661; first compound 0.1265 µM
  relative viability: 0.881
NCI-H661; first compound 0.4 µM
  relative viability: 0.968
NCI-H661; first compound 4 µM
  relative viability: 0.797
SK-LU-1; first compound 0.04 µM
  relative viability: 0.206
SK-LU-1; first compound 0.1265 µM
  relative viability: 0.203
SK-LU-1; first compound 0.4 µM
  relative viability: 0.171
SK-LU-1; first compound 4 µM
  relative viability: 0.15
SK-MES-1; first compound 0.04 µM
  relative viability: 0.444
SK-MES-1; first compound 0.1265 µM
  relative viability: 0.353
SK-MES-1; first compound 0.4 µM
  relative viability: 0.398
SK-MES-1; first compound 4 µM
  relative viability: 0.263
